In US20100151062A1, “Determining nutrients for animals through gene expression” (priority 2008, published 2010):

Tested on: cartilage cells of individual affected unhealthy dogs
Test: In vitro culture of cartilage cells of affected dogs with curcumin or andrographolide, microarray
Assay type: cell-based, dog
Conditions: mean; for Fold change of gene expression, ACTB / Fold change of gene expression, ACTR3 / Fold change of gene expression, ADK / Fold change of gene expression, ANKRD10 / Fold change of gene expression, CAV1 / Fold change of gene expression, CDH11 / Fold change of gene expression, COL3A1 / Fold change of gene expression, COX1 / Fold change of gene expression, COX2 / Fold change of gene expression, IGFBP7 / Fold change of gene expression, IL2 / Fold change of gene expression, MMP2 / Fold change of gene expression, NOS2 / Fold change of gene expression, PTGS-2 / Fold change of gene expression, SPARC / Fold change of gene expression, STMN1 / Fold change of gene expression, TIMP1 / Fold change of gene expression, TIMP2 / Fold change of gene expression, TNF-a / Fold change of gene expression, TUBA / Fold change of gene expression, TUBB: 60 mg/l vs 0, 6 hours, cartilage cells of affected dogs; for Fold change of gene expression, ACTB / Net effect of the NBC on fold change, ACTB: gene ACTB; for Net effect of the NBC on fold change, ACTB / Net effect of the NBC on fold change, ACTR3 / Net effect of the NBC on fold change, ADK / Net effect of the NBC on fold change, ANKRD10 / Net effect of the NBC on fold change, CAV1 / Net effect of the NBC on fold change, CDH11 / Net effect of the NBC on fold change, COL3A1 / Net effect of the NBC on fold change, COX1 / Net effect of the NBC on fold change, COX2 / Net effect of the NBC on fold change, IGFBP7 / Net effect of the NBC on fold change, IL2 / Net effect of the NBC on fold change, MMP2 / Net effect of the NBC on fold change, NOS2 / Net effect of the NBC on fold change, PTGS-2 / Net effect of the NBC on fold change, SPARC / Net effect of the NBC on fold change, STMN1 / Net effect of the NBC on fold change, TIMP1 / Net effect of the NBC on fold change, TIMP2 / Net effect of the NBC on fold change, TNF-a / Net effect of the NBC on fold change, TUBA / Net effect of the NBC on fold change, TUBB: 60 mg/l, 6 hours; for Fold change of gene expression, ACTR3 / Net effect of the NBC on fold change, ACTR3: gene ACTR3; for Fold change of gene expression, ADK / Net effect of the NBC on fold change, ADK: gene ADK; for Fold change of gene expression, ANKRD10 / Net effect of the NBC on fold change, ANKRD10: gene ANKRD10; for Fold change of gene expression, CAV1 / Net effect of the NBC on fold change, CAV1: gene CAV1; for Fold change of gene expression, CDH11 / Net effect of the NBC on fold change, CDH11: gene CDH11; for Fold change of gene expression, COL3A1 / Net effect of the NBC on fold change, COL3A1: gene COL3A1; for Fold change of gene expression, COX1 / Net effect of the NBC on fold change, COX1: gene COX1; for Fold change of gene expression, COX2 / Net effect of the NBC on fold change, COX2: gene COX2; for Fold change of gene expression, IGFBP7 / Net effect of the NBC on fold change, IGFBP7: gene IGFBP7; for Fold change of gene expression, IL2 / Net effect of the NBC on fold change, IL2: gene IL2; for Fold change of gene expression, MMP2 / Net effect of the NBC on fold change, MMP2: gene MMP2; for Fold change of gene expression, NOS2 / Net effect of the NBC on fold change, NOS2: gene NOS2; for Fold change of gene expression, PTGS-2 / Net effect of the NBC on fold change, PTGS-2: gene PTGS-2; for Fold change of gene expression, SPARC / Net effect of the NBC on fold change, SPARC: gene SPARC; for Fold change of gene expression, STMN1 / Net effect of the NBC on fold change, STMN1: gene STMN1; for Fold change of gene expression, TIMP1 / Net effect of the NBC on fold change, TIMP1: gene TIMP1; for Fold change of gene expression, TIMP2 / Net effect of the NBC on fold change, TIMP2: gene TIMP2; for Fold change of gene expression, TNF-a / Net effect of the NBC on fold change, TNF-a: gene TNF-a; for Fold change of gene expression, TUBA / Net effect of the NBC on fold change, TUBA: gene TUBA; for Fold change of gene expression, TUBB / Net effect of the NBC on fold change, TUBB: gene TUBB
Method: Total RNA of cells was extracted using phenol/guanidine HCl reagents (Trizol, Invitrogen). RNA quality integrity was analysed using the Agilent 2100 Bioanalyser (Agilent Technologies) of the sample. The samples determined to have no, or minimal, loss of integrity and thus were considered suitable for use in experiments. mRNA was amplified for each sample, starting with 500 ng total RNA using a commercially available kit (Ambion T7 MEGAscript high yield transcription kit, Ambion). The mRNA was quantified using a spectrophotometer. mRNA was directly reverse transcribed to cDNA from 25 μg of total RNA using the Superscript indirect cDNA labeling Core kit (Invitrogen, Milan, Italy).
Two micrograms of cDNA were labelled with Cyanine-3dCTP (Cy3) or Cyanine-5dCTP (Cy5) fluorochromes using the cDNA labeling purification module kit (Invitrogen, Milan, Italy). Samples were hybridised to a canine specific, whole genome 44k spot 60mer oligonucleotide (Agilent Technologies). The labelled cDNA was appropriately coupled and used for competitive hybridization on the same microarray at 42° C. for 16 h. Fluorescence incorporation was determined using a spectrophotometer. The relative intensity of labelled cDNA in was acquired with ScanArray LITE scanner (PerkinElmer Life Sciences, Inc).
Expression data were then exported into Excel 2007 and processed with SAM software; comparison between groups was achieved using paired student's t tests. […] Correction for multiple hypothesis testing was performed using the false discovery rate (FDR).
Searching within the nutrient data set for biologically active nutrients with anti-arthritic and anti-inflammatory properties identified curcumin and androgropholide as the appropriated compositions. The cartilage cells of individual affected unhealthy dogs were cultured in vitro with 0, or 60 mg/l of curcumin or androgropholide for 6 hours. At the end of the incubation, these cartilage cells from individual affected dogs were washed and used for RNA extraction. For the microarray analysis, co-hybridisation of the RNA from 0 and 60 mg/l was conducted, using the material and the methods described previously.

**Q.** Which results are given for `C=C1CC[C@@H]2[C@](C)(CO)[C@H](O)CC[C@@]2(C)[C@@H]1C/C=C1/C(=O)OC[C@H]1O` [Androgrpholide]?
**A.** Fold change of gene expression, ACTB: −1.0; Net effect of the NBC on fold change, ACTB: 2.8; Fold change of gene expression, ACTR3: 1.0; Net effect of the NBC on fold change, ACTR3: 1.3; Fold change of gene expression, ADK: 0.0; Net effect of the NBC on fold change, ADK: 3.6; Fold change of gene expression, ANKRD10: 0.0; Net effect of the NBC on fold change, ANKRD10: 5.2; Fold change of gene expression, CAV1: 0.0; Net effect of the NBC on fold change, CAV1: 4.8; Fold change of gene expression, CDH11: −1.0; Net effect of the NBC on fold change, CDH11: 5.9; Fold change of gene expression, COL3A1: −2.0; Net effect of the NBC on fold change, COL3A1: 7.5; Fold change of gene expression, COX1: 0.0; Net effect of the NBC on fold change, COX1: 0.8; Fold change of gene expression, COX2: 0.0; Net effect of the NBC on fold change, COX2: 23.0; Fold change of gene expression, IGFBP7: −2.0; Net effect of the NBC on fold change, IGFBP7: 1.7; Fold change of gene expression, IL2: −6.0; Net effect of the NBC on fold change, IL2: −3.0; Fold change of gene expression, MMP2: −5.0; Net effect of the NBC on fold change, MMP2: 5.0; Fold change of gene expression, NOS2: −6.0; Net effect of the NBC on fold change, NOS2: −5.8; Fold change of gene expression, PTGS-2: −5.0; Net effect of the NBC on fold change, PTGS-2: −3.8; Fold change of gene expression, SPARC: 0.0; Net effect of the NBC on fold change, SPARC: 6.3; Fold change of gene expression, STMN1: 0.0; Net effect of the NBC on fold change, STMN1: 6.2; Fold change of gene expression, TIMP1: 0.0; Net effect of the NBC on fold change, TIMP1: 6.2; Fold change of gene expression, TIMP2: 0.0; Net effect of the NBC on fold change, TIMP2: 2.0; Fold change of gene expression, TNF-a: −8.0; Net effect of the NBC on fold change, TNF-a: 2.0; Fold change of gene expression, TUBA: 0.0; Net effect of the NBC on fold change, TUBA: 4.7; Fold change of gene expression, TUBB: 0.0; Net effect of the NBC on fold change, TUBB: 4.8

**Q.** Which “Fold change of gene expression, ACTB” value does the source give for `COc1cc(/C=C/C(=O)CC(=O)/C=C/c2ccc(O)c(OC)c2)ccc1O` [curcumin] here?
**A.** −5.0

**Q.** And the “Net effect of the NBC on fold change, ACTB” value?
**A.** −1.2

**Q.** And the “Fold change of gene expression, ACTR3” value?
**A.** −1.0

**Q.** What about the “Net effect of the NBC on fold change, ACTR3” value of the same compound?
**A.** −4.0

**Q.** And the “Fold change of gene expression, ADK” value?
**A.** −4.3

**Q.** What about the “Net effect of the NBC on fold change, ADK” value of the same compound?
**A.** −1.4

**Q.** What about the “Fold change of gene expression, ANKRD10” value of the same compound?
**A.** −7.0

**Q.** And the “Net effect of the NBC on fold change, ANKRD10” value?
**A.** −1.8

**Q.** What about the “Fold change of gene expression, CAV1” value of the same compound?
**A.** −3.0

**Q.** What about the “Net effect of the NBC on fold change, CAV1” value of the same compound?
**A.** 1.8

**Q.** What about the “Fold change of gene expression, CDH11” value of the same compound?
**A.** −6.0

**Q.** What about the “Net effect of the NBC on fold change, CDH11” value of the same compound?
**A.** 0.9

**Q.** What about the “Fold change of gene expression, COL3A1” value of the same compound?
**A.** −6.0

**Q.** And the “Net effect of the NBC on fold change, COL3A1” value?
**A.** 3.5

**Q.** And the “Fold change of gene expression, COX1” value?
**A.** −1.0

**Q.** What about the “Net effect of the NBC on fold change, COX1” value of the same compound?
**A.** −0.2

**Q.** And the “Fold change of gene expression, COX2” value?
**A.** −15.0

**Q.** What about the “Net effect of the NBC on fold change, COX2” value of the same compound?
**A.** 8.0

**Q.** And the “Fold change of gene expression, IGFBP7” value?
**A.** −1.5

**Q.** What about the “Net effect of the NBC on fold change, IGFBP7” value of the same compound?
**A.** 2.2

**Q.** What about the “Fold change of gene expression, IL2” value of the same compound?
**A.** −4.0

**Q.** What about the “Net effect of the NBC on fold change, IL2” value of the same compound?
**A.** −1.0

**Q.** What about the “Fold change of gene expression, MMP2” value of the same compound?
**A.** −6.5

**Q.** What about the “Net effect of the NBC on fold change, MMP2” value of the same compound?
**A.** 3.5

**Q.** And the “Fold change of gene expression, NOS2” value?
**A.** −0.5

**Q.** And the “Net effect of the NBC on fold change, NOS2” value?
**A.** −0.3

**Q.** What about the “Fold change of gene expression, PTGS-2” value of the same compound?
**A.** −3.0

**Q.** What about the “Net effect of the NBC on fold change, PTGS-2” value of the same compound?
**A.** −1.8

**Q.** What about the “Fold change of gene expression, SPARC” value of the same compound?
**A.** −4.0

**Q.** What about the “Net effect of the NBC on fold change, SPARC” value of the same compound?
**A.** 2.3

**Q.** And the “Fold change of gene expression, STMN1” value?
**A.** −5.0

**Q.** What about the “Net effect of the NBC on fold change, STMN1” value of the same compound?
**A.** 1.2

**Q.** And the “Fold change of gene expression, TIMP1” value?
**A.** −5.0

**Q.** And the “Net effect of the NBC on fold change, TIMP1” value?
**A.** 1.2

**Q.** And the “Fold change of gene expression, TIMP2” value?
**A.** −2.0

**Q.** And the “Net effect of the NBC on fold change, TIMP2” value?
**A.** 0.0

**Q.** What about the “Fold change of gene expression, TNF-a” value of the same compound?
**A.** −14.5

**Q.** What about the “Net effect of the NBC on fold change, TNF-a” value of the same compound?
**A.** −4.5

**Q.** What about the “Fold change of gene expression, TUBA” value of the same compound?
**A.** −2.0

**Q.** What about the “Net effect of the NBC on fold change, TUBA” value of the same compound?
**A.** 2.7

**Q.** What about the “Fold change of gene expression, TUBB” value of the same compound?
**A.** −5.0

**Q.** What about the “Net effect of the NBC on fold change, TUBB” value of the same compound?
**A.** −0.2
